Measurements from patent EP0557876A1, “Use of xanthine derivatives for the treatment of muscle damage subsequent to complete interruption of blood circulation” (HOECHST AKTIENGESELLSCHAFT, priority 1992, dated 1993).
Marks after values point to notes of the source that are not given here.

Test system: Muskelfasern
Assay: Muscle fibre diameter after 3 h tourniquet interruption of blood circulation in a hind limb and subsequent reperfusion
Assay type: in vivo, Cercopithecus pygerythrus
Design: durchschnittliche Durchmesser Muskelfaser Typ1 / durchschnittliche Durchmesser Muskelfaser Typ2a: unit not given here
Description: Zwei Gruppen von acht erwachsenen, männlichen südafrikanischen Meerkatzen (Cercopithecus pygerythrus) werden untersucht. Die Anasthäsie der Tiere erfolgt intramuskulär mit 15 mg/kg Ketamin (Warner Lambert) und wird intravenös mit Thiopenton Natrium (25 mg/kg, May und Baker) aufrecht erhalten. Eine hintere Extremität wird durch eine pneumatische Abschnürbinde und eine Esmarch Bandage blutleer gemacht. Die Unterbrechung der Blutzirklation wird drei Stunden aufrechterhalten, dann wird die Unterbrechung beendet und die Tiere können aus der Betäubung aufwachen. Die Entnahme der Muskelgewebeproben erfolgt unter Betäubung (15 mg/kg Ketamin).
20 mg/kg Verbindung 1 wird intravenös über 30 Minuten den Tieren appliziert bevor die Unterbrechung der Blutzirkulation erfolgt.
Das entnommene Muskelgewebe wird sofort in Isopentan bei -183° C eingefroren. Die Präparation des Muskelgewebes erfolgt wie bei Dubowitz (Dubowitz et al. Muscle Biopsy A practical Approach, London, Bailliere Tindall, 1985, S. 82 - 128) beschrieben. Mikroskopische Schnitte werden mit Muskelfaser-ATPase für 30 Minuten bei pH 9,4 gefärbt, eingebettet und im Lichtmikroskop untersucht. Die Durchmesser von wenigstens 200 Muskelfasern werden mit einem computerisierten Video-Image-Analysator ausgewertet.
Der durchschnittliche Durchmesser jedes Muskelfasertyps wird in Tabelle 1 beschrieben.

[1] = Unterbrechung der Blutzirkulation, lower part of Tabelle 1 (12/18/24 h series), 20 mg/kg i.v.
[2] = Unterbrechung der Blutzirkulation, upper part of Tabelle 1 (3/6 h series), 20 mg/kg i.v.
[3] = Vor Unterbrechung der Blutzirkulation, lower part of Tabelle 1 (12/18/24 h series), 20 mg/kg i.v. over 30 min before interruption
[4] = Vor Unterbrechung der Blutzirkulation, upper part of Tabelle 1 (3/6 h series), 20 mg/kg i.v. over 30 min before interruption

## CCOCn1cnc2c1c(=O)n(CCCCC(C)(C)O)c(=O)n2C [Verbindung 1, 7-Ethoxymethyl-1-(5-hydroxy-5-methylhexyl)-3-methylxanthin]
Nach 3 Stunden, 20 mg/kg i.v.
  durchschnittliche Durchmesser Muskelfaser Typ1: 39,89*
  durchschnittliche Durchmesser Muskelfaser Typ2a: 48,55*
Nach 6 Stunden, 20 mg/kg i.v.
  durchschnittliche Durchmesser Muskelfaser Typ1: 43,42*
  durchschnittliche Durchmesser Muskelfaser Typ2a: 53,37*
Nach 12 Stunden, 20 mg/kg i.v.
  durchschnittliche Durchmesser Muskelfaser Typ1: 35,79
  durchschnittliche Durchmesser Muskelfaser Typ2a: 42,28*
Nach 18 Stunden, 20 mg/kg i.v.
  durchschnittliche Durchmesser Muskelfaser Typ1: 34,68
  durchschnittliche Durchmesser Muskelfaser Typ2a: 41,31
Nach 24 Stunden, 20 mg/kg i.v.
  durchschnittliche Durchmesser Muskelfaser Typ1: 33,00
  durchschnittliche Durchmesser Muskelfaser Typ2a: 40,24
[1]
  durchschnittliche Durchmesser Muskelfaser Typ1: 33,21
  durchschnittliche Durchmesser Muskelfaser Typ2a: 38,69
[2]
  durchschnittliche Durchmesser Muskelfaser Typ1: 36,28
  durchschnittliche Durchmesser Muskelfaser Typ2a: 44,75
[3]
  durchschnittliche Durchmesser Muskelfaser Typ1: 36,50
  durchschnittliche Durchmesser Muskelfaser Typ2a: 45,09
[4]
  durchschnittliche Durchmesser Muskelfaser Typ1: 36,50
  durchschnittliche Durchmesser Muskelfaser Typ2a: 45,09
Nach 18 - 24 Stunden Wiederdurchblutung, 20 mg/kg i.v.
  Schwellung der Muskelfasern vom Typ 1 und 2a: signifikant verringerte Schwellung
